This is an account of results in patent publication US7906620B2, “Tumor associated antigen, peptides thereof, and use of same as anti-tumor vaccines” (Yeda Research and Development Co. Ltd., priority 2002, dated 2011).

One assay relates to LNCaP. Briefly: Lysis of LNCaP tumor cells by human anti-peptide CTL. Format: cell-based. The conditions noted are these: LNCaP high and low HLA expressors as targets. An excerpt:
FIGS. 18A-18E are graphs showing that human anti-peptide CTL from a healthy donor kills LNCaP tumor cells. PBMC from a healthy donor (FIGS. 18A-18C) or a CaP patient (FIGS. 18D-18E) were stimulated with PAP-3 (FIGS. 18A, 18D), STEAP-3 (FIGS. 18B, 18E) or PSGR-1 (FIG. 18C) as described. LNCaP/CRL1740 (LNCaP high in HLA-A2.1 expression), LNCaP/CRL10995 (LNCaP low in HLA-A2.1 expression) and PC3 (negative for HLA-A2.1) served as targets in CTL assays.
When human PBMC are stimulated in vitro by PAP-3 and STEAP-3 peptides, the resulting CTL can lyse target cells (T2, EL4/HHD) pulsed with PAP-3, STEAP-3 or PSGR-1 and PSGR-6 peptides. (FIGS. 15 and 16). Here, these findings were expanded and peripheral blood of three healthy and two CaP individuals was tested for the existence of CTL precursors against PAP-3, STEAP-3 and PSGR-1 peptides. Leukopheresis products of the donors were obtained from Barzilai Medical Center (Ashkelon, Israel) according to Declaration of Helsinki Principles. PBMC were isolated by centrifugation on Ficoll-Plaque Plus gradients (Amersham, Sweden). In vitro priming of CTL was done over autologous DC that were prepared from monocytes by IL-4 and GM-CSF treatment and matured with a IL-1β, IL-6, TNF-α and PGE2 cocktail. DC were pulsed with synthetic peptides and PBMC were supplemented with IL-7. Two days later, IL-2 was added and renewed every three days. Two additional re-stimulations were done every 7 days over peptide pulsed monocytes. Seven days after the third stimulation, lymphocytes were harvested and a cytolytic assay was performed using relevant/non-relevant peptide pulsed or non-pulsed T2 cells (FIGS. 17A-17C) and LNCaP (high and low HLA expressors) cells as targets (FIGS. 18A-18E). […] Monitoring of HLA-A2-peptide specific CD8+ cells for PAP-3 and STEAP-3 was also performed by MHC-peptide tetramers (tetramers of recombinant HLA-A2.1-beta2 microglobulin single chain with peptides were prepared in collaboration with Dr Yoram Reiter, Technion, Haifa). […]

In the next assay the test system is PC3-HHD tumors. Briefly: Adoptive transfer of anti-peptide CTL to CD1 nude mice bearing PC3-HHD tumors. It counts as in vivo. The conditions noted are these: for complete rejection of tumors: local injection day 7, PAP-3: 35×10^6 lymphocytes (11×10^6 CD8+), STEAP-3: 50×10^6 (3×10^6 CD8+), IL-2; for tumor growth in the other mice: same groups as complete rejection. An excerpt: FIGS. 19A and 19B are graphs showing that adoptively transferred anti-peptide CTL retard tumor growth. HHD derived anti-PAP3 (FIG. 19A) or STEAP-3 (FIG. 19B) were stimulated in vitro and transferred to CD1 nude mice bearing 7 day PC3-HHD tumors (expressing PAP and STEAP) as described. Tumor growth was followed for 38 days.
HHD mice were immunized i.p. 6 times (twice at week) with 10^6 syngeneic dendritic cells pulsed with either PAP-3, STEAP-3 or irrelevant (tyrosinase-derived, HLA-A2.1 binding) peptides. Spleens were removed on day 10, and splenocytes were restimulated in vitro by 100 μM of either PAP-3 or STEAP-3 peptides in OPTIMEM for 2 h at 37° C., 5% CO2, followed by restimulation of lymphocytes for 4 more days in lymphocyte medium (RPMI-1640 supplemented with 25 mM HEPES, 10% heat-inactivated FCS, 0.1 mM non-essential amino acids, 1 mM sodium pyruvate, 2 mM. L-glutamine, 40 microg/ml garamycin and 5×10^−5 M 2-mercaptoethanol). Total lymphocytes were suspended at 10^6/ml and activated with plate-bound anti-CD3 mAb (145-2C11) for 72 h at 37° C. in 5% CO2 in 24-well plates. Activated cells were resuspended at a concentration of 3×10^5/ml lymphocyte medium with IL-2 (100 U/ml) for 3 days, then diluted 1:3 in fresh medium with IL-2 for an additional 4 days. Lymphocytes were harvested, samples were incubated with anti-CD4, anti-CD8 or isotype control mAb (all obtained from Catalog, USA), and analyzed using CellQuest software. Seven to nine CD1 nude mice per group received 4 Gy total body irradiation from a 137CS source, followed by s.c. inoculation with 5×10^6 PC3-HHD13 cells in Matrigel (BD PharMingen, San Diego, Calif.) to initiate tumors. Seven days later, mice were injected locally with 35×10^6 PAP-3 or tyrosinase specific lymphocytes (11×10^6 were CD8+), 50×10^6 STEAP-3 specific lymphocytes (3×10^6 were CD8+) or PBS. IL-2 (1000 U) was injected twice a day for five consecutive days. Tumor size was measured 3 times per week.

Assay [1] deals with RMAS-HHD-B7.1 target cells. Briefly: Immunogenicity in HHD mice after immunization with dendritic cells pulsed with peptide pools. The settings on record: DCs pulsed with pools of 2-4 peptides; effector-to-target ratio 25:1. It counts as in vivo. The procedure:
FIGS. 13A and 13B are graphs showing immunogenicity of PAP- or STEAP-derived peptides in HHD mice. The mice were immunized i.v. one time with 1×10^6 peptide-loaded syngeneic dendritic cells (DCs). The DCs were loaded separately with individual peptides, washed and pooled before immunization. Spleens were removed on day 10, and splenocytes were re-stimulated in vitro by 100 μM PAP-derived (FIG. 13A) or STEAP-derived (FIG. 13B) peptides in OPTIMEM for 2 h at 37° C., 5% CO2, followed by restimulation of lymphocytes for 4 more days in RPMI-HEPES, as described. CTL assays were performed on day 5 with individual PAP-, STEAP-derived peptides loaded on RMAS-HHD-B7.1 as targets. Non-relevant HIV derived peptide-loaded RMAS-HHD-B7.1 cells were used as negative controls. The effector-to-target ratio of 25:1 is shown.
The immunogenicity of the peptides, namely their potential to induce T cell responses, was subsequently examined in an in vivo model. A strain of β2 microglobulin (β2m) HLA-A2.1 Monochain Transgenic, H-2D^b−/−Xβ2m^−/− double knockout mice (HHD mice) was used. Upon vaccination of these mice, a repertoire of human HLA-A2.1 restricted CTLs is produced. The lysis patterns of each of the individual peptides loaded on target cells were first evaluated following immunization with syngeneic dendritic cells pulsed with pools of 2-4 synthetic peptides derived from each examined protein.

As to “ILLWQPIPV (listed as Homo sapiens) [PAP-3, PAP start position 135]”, the “lysis of tumor cells expressing endogenously processed proteins” value in the assay on LNCaP is “lyse tumor cells”. In the assay on PC3-HHD tumors, the “complete rejection of tumors” value is on record as 4/8 and the “tumor growth in the other mice” value is listed as “retarded growth”. In addition, the “lysis of peptide-loaded RMAS-HHD-B7.1 target cells” value in assay [1] is recorded as “significant lysis”.

In the case of “LLLGTIHAL (listed as Homo sapiens) [STEAP-3, STEAP start position 262]”, the “lysis of tumor cells expressing endogenously processed proteins” value in the assay on LNCaP is recorded as “lyse tumor cells”. Besides, in the assay with PC3-HHD tumors, the “complete rejection of tumors” value was 2/9 and the “tumor growth in the other mice” value was “retarded growth”. Further, the “lysis of peptide-loaded RMAS-HHD-B7.1 target cells” value in assay [1] is listed as “significant lysis”.
